Measured values reported in patent US9844526B2 (priority 2015, dated 2017).
“Also recorded” adds a separate entry of the source. Read-outs that look alike come from different tables or passages of the source.

What was measured:
platelets [1] = settings: 4 mg/kg/day; cited from earlier work
vascular function = settings: cited from earlier work
[2] = test system: Healthy postmenopausal women; test: Microvascular function by peripheral arterial tonometry (Endo-PAT2000), randomized double-blind crossover trial; format: in vivo, human; settings: combined data
platelets [3] = test: Platelet function by whole blood/optical lumi-aggregometer after capsule intake; format: in vivo, human
Description: Participants were randomized by block design to consumed trans-res or […] random order. Randomization was performed by the study coordinator following a predetermined plan formulated via a web-based random number generator. […] The study included two separate investigations: a one hour study and a two hour study (FIG. 6). During each study visit, which took place after an overnight fast, a baseline measurement of PAT and a blood sample were collected, followed by consumption of the assigned treatment. During the one hour study, PAT measurements and blood samples were collected thirty and sixty minutes after the capsules were consumed. During the two hour study, a PAT measurement and blood sample were taken two hours after the capsules were consumed. Platelet reactivity during clinical screening was assessed by a PFA-100 (Siemens, Deerfield, Ill.), which measures platelet function by simulating arterial hemostasis under blood flow shear stress. During the intervention, platelet function was assessed by a whole blood/optical lumi-aggregometer (Chrono-log Model 700, Havertown, Pa.). Briefly, platelet aggregation was measured via electrical impedence (or electrical resistance), whereas lumi-aggregometry was used to examine aggregation together with adenosine triphosphate (hereafter, “ATP”) release, which is determined with firefly luciferin-luciferase system. […] One of the following agonists was used to stimulate platelets: collagen ([…]), AA (10 μL) or ADP ([…]). ATP release was measured only when platelets were activated with ADP. The aggregation was measured over a period of six minutes, following the addition of an agonist.

platelets [4] = settings: in vitro, 10-1,000 μM, dose dependent; cited from earlier work
cyclooxygenase = settings: in vitro; cited from earlier work
eNOS = settings: 1 μM; human umbilical vein endothelial cells; cited from earlier work
[5] = Plasma resveratrol concentrations after capsule intake (HPLC); format: in vivo, human; settings: one hour study, median (interquartile range), baseline 0.00 (0.00, 0.00)
Description: The study included two separate investigations: a one hour study and a two hour study (FIG. 1). […] The two hour study was designed to fully assess and compare the responses to trans-res and ResArgin™.
Participants were randomized by block design to consumed trans-res or ResArgin™ in random order. Randomization was performed by the study coordinator following a predetermined plan formulated via a web-based random number generator. […] The study included two separate investigations: a one hour study and a two hour study (FIG. 6). During each study visit, which took place after an overnight fast, a baseline measurement of PAT and a blood sample were collected, followed by consumption of the assigned treatment. During the one hour study, PAT measurements and blood samples were collected thirty and sixty minutes after the capsules were consumed. During the two hour study, a PAT measurement and blood sample were taken two hours after the capsules were consumed.
Briefly, plasma was treated with acidified methanol [0.5% (v/v) of acetic acid in methanol; precooled to −20° C.] containing an appropriate recovery standard. The mixture was stored at −80 C for 12 hours to allow for cryo-assisted protein precipitation, and then centrifuged for 15 min at 16,500×g. […]

platelets [6] = settings: 10 mg daily for three months; cited from earlier work
[7] = 10 mg per day for three months, stable coronary artery disease patients
[8] = platelets stimulated with 1 μL collagen, one hour post consumption of 90 mg
[9] = platelets stimulated with 10 μL arachidonic acid, one hour after intake of 90 mg

Row | SMILES | ADP-induced platelet aggregation (platelets [1]) | FMD response (vascular function; [7]) | FMD response (vascular function; 75 mg daily for six weeks) | AI@75 (AI normalized to a heart rate of 75 beats per minute), change ([2]; 90 mg) | RHI ([2]; 1 hour after intake, ResArgin baseline 2.119±0.085) | FRHI, change from baseline ([2]; one and two hours after intake) | Slope, change from baseline (platelets [3]; lumi-aggregometry with 10 μL ADP, one hour post consumption of 90 mg) | Lag time, change from baseline (platelets [3]; [8]) | Slope, change from baseline (platelets [3]; [8]) | Area under the curve (AUC) of aggregation, change from baseline (platelets [3]; [9]) | Maximum aggregation, change from baseline (platelets [3]; [9]) | Platelet function, change from baseline (platelets [3]; stimulation with 5 μL collagen, one hour post consumption of 90 mg) | Platelet aggregation (platelets [4]) | Cyclooxygenase (COX) activity (cyclooxygenase) | Expression of eNOS (eNOS) | Plasma resveratrol concentration ([5]; 30 minutes after intake of 90 mg) | Plasma resveratrol concentration ([5]; 60 minutes after intake of 90 mg) | Platelet aggregation (platelets [6]) | FMD response (vascular function; 75 mg, one hour post-consumption) | FMD response (vascular function; single dose of 30, 90 and 270 mg, one hour after consumption)
1 | Oc1ccc(C=Cc2cc(O)cc(O)c2)cc1 [Resveratrol, 3,5, 4′-trihydroxystilbene] | inhibited | enhanced | enhanced | – | – | – | – | – | – | – | – | – | – | – | – | – | – | – | – | –
2 | Oc1ccc(/C=C/c2cc(O)cc(O)c2)cc1 [trans-res, Trans-resveratrol] | – | significant improvement | significant increase | No significant changes | not observed | No differences were observed; also recorded: no changes | significant decrease | significant increase | not | no changes | no changes | no significant changes | significantly reduced | inhibit | up-regulated | 2.04 (0.82, 2.54) | 2.65 (1.69, 3.44) | significantly reduced | significant increase | increase
